{
  "source": "paper PMC3469775",
  "about": "(Journal of medicinal chemistry, 2012)",
  "target": "T1, human placental aromatase (Homo sapiens, UniProt P11511)",
  "T1 sequence (P11511 1-503)": "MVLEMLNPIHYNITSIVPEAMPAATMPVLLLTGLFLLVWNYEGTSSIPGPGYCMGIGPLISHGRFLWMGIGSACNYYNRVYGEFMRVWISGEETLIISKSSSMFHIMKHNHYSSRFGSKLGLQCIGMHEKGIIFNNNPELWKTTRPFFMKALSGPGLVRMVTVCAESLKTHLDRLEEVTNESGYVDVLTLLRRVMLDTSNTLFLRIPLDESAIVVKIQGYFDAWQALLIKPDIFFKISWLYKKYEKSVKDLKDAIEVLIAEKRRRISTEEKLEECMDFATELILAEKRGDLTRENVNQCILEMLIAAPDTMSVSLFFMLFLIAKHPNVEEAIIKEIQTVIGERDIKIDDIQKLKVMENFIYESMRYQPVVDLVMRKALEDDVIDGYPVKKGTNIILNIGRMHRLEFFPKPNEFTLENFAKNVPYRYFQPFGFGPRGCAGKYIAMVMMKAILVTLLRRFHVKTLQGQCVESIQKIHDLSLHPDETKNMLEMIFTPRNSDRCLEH",
  "assay": "Inhibition of purified human placental aromatase",
  "assay_type": "biochemical",
  "details": "for fold less potent than the AIs (IC50): compared with the AIs; for IC50 (in words): purified placental aromatase",
  "data": [
    {"molecule": "CC#CCO[C@@H]1C[C@@H]2[C@H](CC[C@]3(C)C(=O)CC[C@@H]23)[C@@]2(C)C=CC(=O)C=C12", "note": "[Compound 4, (6R,8R,9S,10R,13S,14S)-6-(But-2-ynyloxy)-10,13-dimethyl-7,8,9,10,11,12,13,14,15,16-decahydro-3H-cyclopenta[a]-phenanthrene-3,17(6H)-dione]", "values": [
      {"measurement": "inhibition at 300 µM", "setting": "read-out: inhibition of the enzyme activity", "result": 93, "unit": "%"}
    ]},
    {"molecule": "CO[C@@H]1C[C@@H]2[C@H](CC[C@]3(C)C(=O)CC[C@@H]23)[C@@]2(C)C=CC(=O)C=C12", "note": "[Compound 2, (6R,8R,9S,10R,13S,14S)-6-Methoxy-10,13-dimethyl-7,8,9,10,11,12,13,14,15,16-decahydro-3H-cyclopenta[a]-phenanthrene-3,17(6H)-dione]", "values": [
      {"measurement": "fold less potent than the AIs (IC50)", "result": "about 1000 fold"},
      {"measurement": "IC50 (in words)", "result": "several micromolar"}
    ]},
    {"molecule": "CCO[C@@H]1C[C@@H]2[C@H](CC[C@]3(C)C(=O)CC[C@@H]23)[C@@]2(C)C=CC(=O)C=C12", "note": "[Compound 3, (6R,8R,9S,10R,13S,14S)-6-Ethoxy-10,13-dimethyl-7,8,9,10,11,12,13,14,15,16-decahydro-3H-cyclopenta[a]-phenanthrene-3,17(6H)-dione]", "values": [
      {"measurement": "fold less potent than the AIs (IC50)", "result": "about 1000 fold"},
      {"measurement": "IC50 (in words)", "result": "several micromolar"}
    ]}
  ]
}
